# From patent US10570099B2, “Salts of an epidermal growth factor receptor kinase inhibitor” (Celgene CAR LLC, priority 2012, dated 2020)
# Legend:
# [1] = Thermodynamic solubility in media of various pH (HPLC; XRPD of excess solids); settings: for Thermodynamic Solubility: ca. 24 hours
# Procedure: The remaining solids were also analysed by XRPD analysis to establish if any changes in the solid form occurred.
# The remaining solids were also analysed by XRPD analysis to establish if any changes in the solid form occurred. For the buffer solutions, KCl/HCl was used for pH 1 and citrate/phosphate combinations for pH 3, 4.5 and 6.6.
# The remaining solids were also analysed by XRPD analysis to establish if any changes in the solid form occurred. For the buffer solutions, KCl/HCl was used for pH 1 and citric acid/sodium citrate combinations for pH 3, 4.5 and 6.2.
# The solids were then removed by filtration and tested by XRPD analysis. The mother liquors were analyzed by HPLC to determine API solubility.
# For the buffer solutions, KCl/HCl was used for pH 1 and citrate/phosphate combinations for pH 3, 4.5 and 6.6 (10 mM). The pH of the solutions was also measured prior to HPLC analysis.
# [2] = Hydration study (slurry in solvent:water mixtures, XRPD); type: physicochemical; settings: ambient, ca. 3-4 days
# Procedure: The resulting solids were then analyzed by XRPD to determine if any changes had occurred on slurrying.
# Slurries of the hydrobromide salt were created in acetone:water mixtures (3%, 5% and 10%) and stirred at ambient for ca. 3 days. The resulting solids were then analysed by XRPD to determine if any changes had occurred on slurrying.
# Slurries were created using ca. 200 mg of Form I salt material in 2 mL of the appropriate solvent system. These were stirred at ca. 55° C. for 6 hours.
# Slurries were created using ca. 200 mg of Form I salt material in 2 mL of the appropriate solvent system.
# [3] = Dynamic vapour sorption (DVS); type: physicochemical
# Procedure: For dynamic vapour sorption (DVS), approximately 10-20 mg of sample was placed into a wire mesh vapour sorption balance pan and loaded into a DVS-1 dynamic vapour sorption balance by Surface Measurement Systems. The sample was subjected to a ramping profile from 20-90% relative humidity (RH) at 10% increments, maintaining the sample at each step until a stable weight had been achieved (99.5% step completion). After completion of the sorption cycle, the sample was dried using the same procedure, but all the way down to 0% RH and finally taken back to the starting point of 20% RH. The weight change during the sorption/desorption cycles were plotted, allowing for the hygroscopic nature of the sample to be determined.
# [4] = Salt disproportionation study (slurry in deionized water); type: physicochemical; settings: for pH of the supernatant: deionized water slurry; for Disproportionation study, result of slurrying (XRPD): deionized water, ambient
# Procedure: The pH of the supernatant was also monitored.
# The hydrobromide salt was slurried in deionised water at ambient temperature (ca. 22° C.). […] The pH of the supernatant was also monitored.
# [5] = Intrinsic dissolution of compressed discs; type: physicochemical
# Procedure: A Sotax AT7 dissolution bath (USP 2, EP 2 apparatus) was used for the dissolution study in which paddles were used to stir the media. All tests were carried out at 37° C. and a paddle speed of 100 rpm.
# (§1) Approximately 100-120 mg of each form was compressed into discs by placing the material into a die (diameter: 13 mm) and compressing the die under 5 tons of pressure in a hydraulic press for ca. 2 minutes. A Sotax AT7 (conformed to EP2 and USP2) dissolution instrument was used containing paddles to stir the media at 100 rpm. Dissolution media of pH 3 (1% SDS) and pH 4.5 (1% SDS) were prepared using citrate/phosphate buffer. All materials were tested in 750 ml of the buffer medium. Discs were added at time=0 seconds and allowed to sink to the bottom of the dissolution vessel before stirring began. ca. 1 ml aliquots of media were extracted from the dissolution vessels at times 1, 5, 10, 15, 30, 60, 120, 240 minutes and 24 hours, and tested for dissolved salt concentration by HPLC-UV. The dissolution tests were carried out in duplicate. For both dissolution media, the peak areas for the initial time points (up to 15 minutes), fell below the limit of quantification, however, when plotting Dissolution rate vs. time, the steepest part of the curve occurs during these early time points.
# as §1, with “material” for “each form”, “API” for “dissolved salt”
# [6] = 1 week stability of primary screen salts at 40° C./75% RH and 80° C. (open vials, XRPD); type: physicochemical; settings: listed as Besylate (2 equiv.) Form I
# Procedure: (open vials). TGA was carried out after the stability studies for samples containing sufficient material.
# [7] = 1 week stability study (XRPD and HPLC); type: physicochemical; settings: 1 week
# Procedure: (§2) Resulting solids were analysed by XRPD and HPLC to establish if any changes had occurred.
# as §2
# The resulting solids were analysed by XRPD and HPLC to establish if any changes had occurred.
# [8] = tested on: human non-small cell lung cancer cell; settings: cited from earlier work
# [9] = tested on: human non-small cell lung cancer cell; settings: cited from earlier work; remark: listed apart in the source
# [10] = tested on: mutant EGFR kinase; settings: enzymatic and cellular assays; cited from earlier work
# [11] = Slurry in pH 6.2 aqueous medium (conversion to unknown solid form); type: physicochemical; settings: slurry as for the hydrobromide at pH 6.2, XRPD
# Procedure: In attempts to characterize this form, as well as establish the rate of conversion to this form while slurrying the material, the following experiments were carried out. Initially, approximately 100 mg of the hydrobromide (1 equiv.) material was slurried in a pH 6.2 aqueous solution at ambient and XRPD analysis was carried out at time points 5 min., 1 hr, 2 hrs, 4 hrs and 8 hrs. Further analysis was then also carried out on the converted material.
# [12] = 40° C./75% RH, closed (crimped) vial
compound,measurement,setting,value
C=CC(=O)Nc1cccc(Nc2nc(Nc3ccc(N4CCN(C(C)=O)CC4)cc3OC)ncc2C(F)(F)F)c1.O=S(=O)(O)c1ccccc1.O=S(=O)(O)c1ccccc1 [bis-besylate salt],XRPD of excess solids,"[1]; pH 1.0, KCl/HCl",Diffractogram corresponds with the hydrated
same,Thermodynamic Solubility,"[1]; pH 1.0, KCl/HCl buffer",4.93 mg/mL
same,XRPD of excess solids,"[1]; pH 3.0, Citrate/Phosphate",Change in diffractogram - does not correspond
same,Thermodynamic Solubility,"[1]; pH 3.0, Citrate/Phosphate",0.24 mg/mL
same,XRPD of excess solids,"[1]; pH 3.0, KHP/HCl",Change in diffractogram - does not correspond
same,Thermodynamic Solubility,"[1]; pH 3.0, KHP/HCl",0.26 mg/mL
same,XRPD of excess solids,"[1]; pH 4.5, Citrate/Phosphate",Change in diffractogram - does not correspond
same,Thermodynamic Solubility,"[1]; pH 4.5, Citrate/Phosphate",0.43 mg/mL
same,XRPD of excess solids,"[1]; pH 4.5, KHP/NaOH",Change in diffractogram - does not correspond
same,Thermodynamic Solubility,"[1]; pH 4.5, KHP/NaOH",0.10 mg/mL
same,XRPD of excess solids,"[1]; pH 6.6, Citrate/Phosphate",Change in diffractogram - does not correspond
same,Thermodynamic Solubility,"[1]; pH 6.6, Citrate/Phosphate",0.66 mg/mL
same,XRPD of excess solids,"[1]; pH 6.6, Phosphate/NaOH",Change in diffractogram - does not correspond
same,Thermodynamic Solubility,"[1]; pH 6.6, Phosphate/NaOH",0.17 mg/mL
same,"Hydration study, result of slurrying",[2]; Acetone:water (3%),Corresponds with the input bis-
same,"Hydration study, result of slurrying",[2]; Acetone:water (10%),Different from the bis-besylate input
same,post DVS XRPD analysis (polymorphic form),[3]; after DVS cycles,change in polymorphic form
same,water uptake (DVS),[3]; between 20 and 70% RH,ca. 2.2%
same,pH of the supernatant,[4]; 1 hr,pH 2-3
same,pH of the supernatant,[4]; 24 hrs,pH 1-2
same,pH of the supernatant,[4]; 48 hrs,pH 1-2
same,"Disproportionation study, result of slurrying (XRPD)",[4]; 1 hr,Yellow gum present.
same,"Disproportionation study, result of slurrying (XRPD)",[4]; 24 hrs,"Different from starting material, appears to"
same,"Disproportionation study, result of slurrying (XRPD)",[4]; 48 hrs,"Different from starting material, appears to"
same,intrinsic dissolution value,"[5]; pH 3.0 (1% SDS), early time points, tablet 1",approximately 0.36 mg/cm^2/min
same,intrinsic dissolution value,"[5]; pH 3.0 (1% SDS), early time points, tablet 2",~0.38 mg/cm^2/min
same,intrinsic dissolution value,"[5]; pH 3.0 (1% SDS), later time points, tablet 1",0.08 mg/cm^2/min
same,intrinsic dissolution value,"[5]; pH 3.0 (1% SDS), later time points, tablet 2",0.07 mg/cm^2/min
same,intrinsic dissolution value,"[5]; pH 4.5 (1% SDS), early time points, tablet 1",approximately 0.61 mg/cm^2/min
same,intrinsic dissolution value,"[5]; pH 4.5 (1% SDS), early time points, tablet 2",approximately 0.61 mg/cm^2/min
same,intrinsic dissolution value,"[5]; pH 4.5 (1% SDS), later time points, tablet 1",0.09 mg/cm^2/min
same,intrinsic dissolution value,"[5]; pH 4.5 (1% SDS), later time points, tablet 2",0.08 mg/cm^2/min
same,Stability 40° C./75% RH (open conditions),[6],Solid/gum present.
same,HPLC purity after storage,[7]; [12],97.35%
same,XRPD after storage,[7]; [12],No change in polymorphic form.
same,HPLC purity after storage,"[7]; 40° C./75% RH, open vial",97.22%
same,XRPD after storage,"[7]; 40° C./75% RH, open vial","Change in polymorphic form,"
same,HPLC purity after storage,"[7]; 80° C., open vial",97.20%
same,XRPD after storage,"[7]; 80° C., open vial",Corresponds predominantly with input
"C=CC(=O)Nc1cccc(Nc2nc(Nc3ccc(N4CCN(C(C)=O)CC4)cc3OC)ncc2C(F)(F)F)c1 [Compound 1, N-(3-(2-(4-(4-acetylpiperazin-1-yl)-2-methoxyphenylamino)-5-(trifluoromethyl)pyrimidin-4-ylamino)phenyl)acrylamide]",inhibition of cell proliferation in vitro,[8],inhibit
same,inhibition of cell proliferation in vivo,[9],inhibit
same,inhibition of mutant EGFR kinase,[10],"selective covalent, irreversible inhibition"
same,solid form after slurry experiment,[11],remained as the free base Form I
